According to patent publication US9204653B2, “5-fluoro pyrimidine derivatives” (DOW AGROSCIENCES LLC, priority 2008, dated 2015):
Like-named read-outs stand apart in the source and are kept apart here.

System: Mycosphaerella graminicola; Anamorph: Septoria tritici; Bayer Code SEPTTR
Assay: Leaf blotch of wheat, foliar fungicide treatment, one day protectant (1DP) or three day curative (3DC)
Format: in vivo, Septoria tritici on wheat plants (variety Yuma)
Conditions: Zymoseptoria tritici, percent control rating; for pest or weed control at 100 ppm: read-out: SEPTTR 3DC 100 ppm
[1] = 24 h, one day protectant (1DP), 25 ppm (first 1DP column), read-out: SETTTR 1DP 25 ppm
[2] = 24 h, one day protectant (1DP), 25 ppm as printed (second 1DP column), read-out: SETTTR 1DP 25 ppm
[3] = 72 h, three day curative (3DC), 25 ppm, read-out: SEPTTR 3DC 25 ppm

SMILES	pest or weed control at 25 ppm [1] [%]	pest or weed control at 25 ppm [2] [%]	pest or weed control at 25 ppm [3] [%]	pest or weed control at 100 ppm (72 h, three day curative (3DC)) [%]
C=CCOc1ncc(F)c(N/N=C(\C)c2ccc(Cl)s2)n1 [Compound 1061]	26 to 50	0 to 25	0 to 25	0 to 25
C=CCOc1ncc(F)c(N/N=C/C2CC2)n1 [Compound 1062]	0 to 25	0 to 25	0 to 25	0 to 25
C=CCOc1ncc(F)c(N/N=C/C(C)=C/C)n1 [Compound 1063]	0 to 25	0 to 25	0 to 25	0 to 25
C=CCOc1ncc(F)c(N/N=C/c2ccco2)n1 [Compound 1064]	0 to 25	0 to 25	0 to 25	0 to 25
COc1ncc(F)c(N(C)O)n1 [Compound 1066]	0 to 25	0 to 25	0 to 25	0 to 25
COc1ncc(F)c(N(O)C(C)C)n1 [Compound 1067]	0 to 25	0 to 25	0 to 25	0 to 25
CN(Cc1ccc(Cl)cc1)c1nc(O)ncc1F [Compound 1068]	0 to 25	0 to 25	0 to 25	0 to 25
Cc1ccc(CN(C)c2nc(O)ncc2F)cc1 [Compound 1069]	0 to 25	0 to 25	51 to 75	51 to 75
COc1ccccc1CN(C)c1nc(O)ncc1F [Compound 1070]	26 to 50	0 to 25	0 to 25	0 to 25
CN(Cc1ccc(C(F)(F)F)cc1)c1nc(O)ncc1F [Compound 1071]	0 to 25	26 to 50	26 to 50	26 to 50
C=CCOc1ncc(F)c(NOCC)n1 [Compound 1072]	0 to 25	0 to 25	0 to 25	0 to 25
COc1ncc(F)c(NOCc2ccc([N+](=O)[O-])cc2)n1 [Compound 1073]	26 to 50	0 to 25	0 to 25	0 to 25
C=CCOc1ncc(F)c(NNc2cc(C)ccc2C)n1 [Compound 1074]	0 to 25	0 to 25	0 to 25	26 to 50
C=CCOc1ncc(F)c(NO[Si](C)(C)C(C)(C)C)n1 [Compound 1075]	0 to 25	0 to 25	0 to 25	0 to 25
COc1ccc(CONc2nc(OC)ncc2F)cc1 [Compound 1076]	0 to 25	0 to 25	0 to 25	26 to 50
C=CCOc1ncc(F)c(NNc2ccccc2F)n1 [Compound 1077]	0 to 25	0 to 25	0 to 25	26 to 50
C=CCOc1ncc(F)c(NNc2ccc(Br)cc2)n1 [Compound 1078]	0 to 25	0 to 25	26 to 50	0 to 25
COc1ncc(F)c(NO[Si](C)(C)C(C)(C)C)n1 [Compound 1079]	0 to 25	0 to 25	0 to 25	0 to 25
COc1ncc(F)c(N(O)Cc2ccccc2)n1 [Compound 1080]	0 to 25	0 to 25	26 to 50	26 to 50
